Measurements as given in patent US20050226943A1, “Extract of sophora flavescens flavonoids and uses thereof” (priority 2004, published 2005).

Assays:
IL1-β = assay: Inhibition of LPS-induced IL1-β in normal human PBMC (ELISA); assay type: cell-based; details: for IL-1β: LPS-stimulated PBMC supernatant; for IL-1βInhibition Ratio (%): LPS-stimulated PBMC
From the text: (§1) Materials: • 1) Cell: PBMC (Peripheral Blood […]) • 2) Drugs: Sophora flavescens flavonoids extract and Kurarinone (Exp. 1) • 3) Positive control: Dexamethason (DEX) • 4) Reagents: Ficoll-Paque Plus (Amersham Bioscience), LPS and dexamethason (CalBiochem.), TNFa ELISA (Enzyme Linked Immunosorbent Assay) Kit and IL1-β ELISA Kit (Jingmei Bioengineer Technology), DMSO (Dimethylsulfoxide) (Sigma)
(§2) a. PBMC cells are isolated from fresh blood by using of Ficoll-Paque Plus reagent according to the protocol that the manufacturer recommends. Cells are suspended in RPMI 1640 media containing 10% FBS. 100 μl of 1×10^5 cells/ml is seeded in each well of 96 well plate, 1×10^4 cells total in each well and three wells for each reaction.
(§3) b. Samples are added into cells (final concentrations are 10, 30, 100 ug/ml, respectively. Sample volume that is added into each well is 10 μl). Final concentration of the positive control, dexamethason is 10 μM. 10 μl of media is added into the cells as a negative control. Then the plate is incubated in 37° C., 5% CO2 incubator for 15 minutes, 10 μl of 100 μg/ml LPS was added to each well except for negative controls. Incubate in 37° C., 5% CO2 incubator overnight.
(§4) c. Spin the plate at 1000 rpm for 15 minutes, transfer supernatant from each well to a new plate, measure the concentrations of TNFα and IL1-β by using assay kits. [formula]

TNFα = assay: Inhibition of LPS-induced TNFα in normal human PBMC (ELISA); assay type: cell-based; details: for TNFa: LPS-stimulated PBMC supernatant; for TNFa Inhibition Ratio (%): LPS-stimulated PBMC
From the text: as §1, §2, §3, §4

SMILES	IL-1β (IL1-β; positive control 10 uM)	IL-1βInhibition Ratio (%) (IL1-β; positive control 10 uM)	TNFa (TNFα; positive control 10 uM)	TNFa Inhibition Ratio (%) (TNFα; positive control 10 uM)	IL-1β (IL1-β; sample 10 μg/ml)	IL-1β (IL1-β; sample 30 μg/ml)	IL-1β (IL1-β; sample 100 μg/ml)	IL-1βInhibition Ratio (%) (IL1-β; sample 10 μg/ml)	IL-1βInhibition Ratio (%) (IL1-β; sample 30 μg/ml)	IL-1βInhibition Ratio (%) (IL1-β; sample 100 μg/ml)	TNFa (TNFα; sample 10 μg/ml)	TNFa (TNFα; sample 30 μg/ml)	TNFa (TNFα; sample 100 μg/ml)	TNFa Inhibition Ratio (%) (TNFα; sample 10 μg/ml)	TNFa Inhibition Ratio (%) (TNFα; sample 30 μg/ml)	TNFa Inhibition Ratio (%) (TNFα; sample 100 μg/ml)
C[C@@H]1C[C@H]2[C@@H]3CCC4=CC(=O)C=C[C@]4(C)[C@@]3(F)[C@@H](O)C[C@]2(C)[C@@]1(O)C(=O)CO [DEX, Dexamethason, reference compound]	275.6 ± 5.3 pg/mL	72.9 ± 1.6%	120.9 ± 3.4 pg/mL	61.3 ± 1.9%												
C=C(C)[C@H](CC=C(C)C)Cc1c(O)cc(OC)c2c1O[C@H](c1ccc(O)cc1O)CC2=O [Kurarinone, 4H-1-Benzopyran-4-one, 2-(2,4-dihydroxyphenyl)-2,3-dihydro-7-hydroxy-5-methoxy-8-[5-methyl-2-(1-methylethenyl)-4-hexenyl]-]					129.8 ± 8.4 pg/mL	80.5 ± 3.7 pg/mL	3.1 ± 0.3 pg/mL	62.4 ± 4.2%	75.0 ± 4.1%	99.0 ± 0.5%	92.2 ± 2.7 pg/mL	39.5 ± 1.5 pg/mL	2.1 ± 0.3 pg/mL	52.5 ± 4.2%	78.5 ± 4.1%	98.8 ± 2.1%
